Data reported in patent US5731309A, “Substituted heteroalkyleneamine neurokinin antagonists” (Zeneca Limited, priority 1994, dated 1998).

Assays:
human NK2 receptor = biological target: T1, human NK2 receptor (Homo sapiens, UniProt P21452); experiment: Neurokinin A (NKA) Receptor Binding Assay (Test B); conditions: antagonism of NKA binding; human NK2 receptor expressed in MEL cells
T1 construct: expressed in transfected cells; host or cells: Mouse Erythroleukemia (MEL) cells
T1 sequence (P21452 1-398): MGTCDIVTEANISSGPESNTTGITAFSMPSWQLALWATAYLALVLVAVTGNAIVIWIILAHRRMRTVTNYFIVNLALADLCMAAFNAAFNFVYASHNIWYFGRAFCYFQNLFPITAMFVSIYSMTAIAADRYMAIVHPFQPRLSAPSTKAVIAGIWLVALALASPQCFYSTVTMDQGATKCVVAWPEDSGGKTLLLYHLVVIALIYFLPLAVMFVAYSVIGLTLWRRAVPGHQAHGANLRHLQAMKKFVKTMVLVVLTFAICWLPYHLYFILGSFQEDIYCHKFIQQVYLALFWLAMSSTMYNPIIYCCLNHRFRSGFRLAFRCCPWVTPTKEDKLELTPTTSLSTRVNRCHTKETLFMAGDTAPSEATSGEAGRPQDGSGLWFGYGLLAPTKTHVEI
From the text: Neurokinin A (NKA) Receptor Binding Assay (Test B)

human NK1 receptor = biological target: T2, human NK1 receptor (Homo sapiens, UniProt P25103); experiment: SP Receptor Binding Assay (Test A); conditions: antagonism of SP binding; human NK1 receptor expressed in MEL cells
T2 construct: expressed in transfected cells; host or cells: Mouse Erythroleukemia (MEL) cells
From the text: SP Receptor Binding Assay (Test A)
The human NK1 receptor was isolated and characterized as described in: B. Hopkins, et al. "Isolation and characterization of the human lung NK1 receptor cDNA" Biochem. Biophys. Res. Comm., 1991, 180, 1110-1117; and the NK1 receptor was expressed in Mouse Erythroleukemia (MEL) cells using a procedure similar to that described in Test B below.

NK1 receptor = biological target: T3, NK1 receptor (Oryctolagus cuniculus, UniProt G1SEI7); experiment: Rabbit Pulmonary Artery: NK1 in vitro functional assay (Test C); parameters: species or system rabbit (male New Zealand white); conditions: -log molar KB, agonist ASMSP, read-out: pKB in Test C (converted)
T3 construct: The left and right branches of the pulmonary artery are isolated from the rest of the lung tissue; from tissue; host or cells: rabbit (male New Zealand white) pulmonary artery ring segments with intact endothelium
Experimental: Rabbit Pulmonary Artery: NK1 in vitro functional assay (Test C)
Male New Zealand white rabbits are killed by lethal injection (Nembutal, 60 mg/kg into a cannulated ear vein). Heparin, 0.0025 ml/kg of a 1000 U/ml solution, is injected into the ear vein prior to nembutal in order to decrease blood coagulation. The left and right branches of the pulmonary artery are isolated from the rest of the lung tissue and cut in half to provide four ring segments from each animal. […] Changes in tension are measured on a Grass polygraph via Grass FT-03 force transducers. […]
Potencies of the compounds are determined by calculating the apparent dissociation constants (KB) for each concentration tested using the standard equation: […]
where dose ratio=antilog[(agonist-log molar EC50 without compound)-(agonist-log molar EC50 with compound)]. The KB values are converted to the negative logarithms and expressed as -log molar KB (i.e. pKB). […] The EC50 values are converted to negative logarithms and expressed as -log molar EC50. Maximum relaxation responses to ASMSP are determined by expressing the maximum response to the agonist as a percentage of the relaxation caused by papaverine.

NK2 receptor = biological target: T4, NK2 receptor (Cavia porcellus, UniProt Q64077); experiment: Guinea Pig Trachea Assay: NK2 in vitro functional assay (Test D); conditions: -log molar KB, agonist BANK, read-out: pKB in Test D (converted)
T4 construct: The trachea are removed, trimmed of excess tissue (including removal of epithelium) and cut in spiral fashion; from tissue; host or cells: guinea pig trachea strips, epithelium removed
T4 sequence (Q64077 1-402): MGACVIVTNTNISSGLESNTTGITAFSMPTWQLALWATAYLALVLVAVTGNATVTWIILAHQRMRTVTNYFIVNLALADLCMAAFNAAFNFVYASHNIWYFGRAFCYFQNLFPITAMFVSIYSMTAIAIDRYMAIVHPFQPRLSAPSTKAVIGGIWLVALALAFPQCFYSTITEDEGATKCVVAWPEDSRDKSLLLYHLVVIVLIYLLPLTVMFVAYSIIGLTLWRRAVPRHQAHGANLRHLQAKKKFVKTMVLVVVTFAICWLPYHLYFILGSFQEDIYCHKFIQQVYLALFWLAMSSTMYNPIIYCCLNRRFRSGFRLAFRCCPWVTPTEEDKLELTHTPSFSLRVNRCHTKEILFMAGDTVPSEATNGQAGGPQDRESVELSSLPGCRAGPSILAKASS
Experimental: Guinea Pig Trachea Assay: NK2 in vitro functional assay (Test D)
Male guinea pigs are killed by a sharp blow to the back of the head followed by exsanguination. The trachea are removed, trimmed of excess tissue (including removal of epithelium) and cut in spiral fashion. Each longitudinally cut tracheal segment is suspended as a strip in a water-jacketed (37.5° C.) tissue bath containing a physiological salt solution of the following composition (mM): NaCl, 119; KCl 4.6; CaCl2, 1.8; MgCl2, 0.5; NaH2 PO4, 1; NaHCO3, 25; glucose, 11; and indomethacin, 0.005 (to inhibit cyclooxygenase); gassed continuously with 95% O2-%5 CO2. […] Contractile responses are measured on a Grass polygraph via Grass FT-03 force transducers. […]
Potencies of the compounds are evaluated by calculating apparent dissociation constants (KB) for each concentration tested using the standard equation: […]
where dose ratio=antilog[(agonist -log molar EC50 without compound)-(agonist-log molar EC50 with compound)]. The KB values are converted to the negative logarithms and expressed as -log molar KB (i.e. pKB). […] The EC50 values are converted to the negative logarithms and expressed as -log molar EC50. Maximum contractile responses to BANK are determined by expressing the maximum response to BANK as a percentage of the initial contraction caused by capasacin.

T2 sequence (P25103 whole entry): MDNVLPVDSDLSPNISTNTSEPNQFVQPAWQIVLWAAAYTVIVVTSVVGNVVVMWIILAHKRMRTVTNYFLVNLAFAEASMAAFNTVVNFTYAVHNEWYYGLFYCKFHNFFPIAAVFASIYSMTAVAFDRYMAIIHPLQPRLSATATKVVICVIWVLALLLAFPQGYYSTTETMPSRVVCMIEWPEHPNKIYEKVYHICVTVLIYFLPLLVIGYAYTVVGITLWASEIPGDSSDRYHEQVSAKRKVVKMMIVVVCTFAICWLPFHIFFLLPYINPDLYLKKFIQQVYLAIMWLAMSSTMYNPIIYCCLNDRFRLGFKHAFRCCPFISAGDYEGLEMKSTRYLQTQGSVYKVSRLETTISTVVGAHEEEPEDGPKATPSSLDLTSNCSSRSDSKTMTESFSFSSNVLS
T3 sequence (G1SEI7 1-407): as the sequence (P25103 whole entry) above, with S12F, N189D, P369A, D371E, T376N, C386G, D391N, S402Y, V405M counted along it

Ki (human NK2 receptor) [nM]	Ki (human NK1 receptor) [nM]	Kb (NK1 receptor) [nM]	Kb (NK2 receptor) [nM]	SMILES
13	430			CC(=O)NC1(c2ccccc2)CCN(CCC(CNCCc2ccccc2)c2ccc(Cl)c(Cl)c2)CC1 (stereo not shown) [Example 3, 4-(4-acetamido-4-phenylpiperidino)-2-(3,4-dichlorophenyl)-N-(phenethyl)butylamine]
		955	3160	CC(=O)NC1(c2ccccc2)CCN(CCC(CN(Cc2cc(C(F)(F)F)cc(C(F)(F)F)c2)C(C)=O)c2ccc(Cl)c(Cl)c2)CC1 (stereo not shown) [Example 10, 4-(4-Acetamido-4-phenylpiperidino)-N-acetyl-2-(3,4-dichlorophenyl)-N-[3,5-bis(trifluoromethyl)benzyl]butylamine]
